Assay results taken from PubChem BioAssay AID2060510 (Molecular Pharmacology Branch, DTP, NCI, 2025).

Tested on: 439559-082-T-J2-PDC spheroids viability
Test: Anticancer human tumor 439559-082-T-J2-PDC patient-derived colon adenocarcinoma cell line growth inhibition [GQUAD]
Settings: for IC50: curve of first compound; for viability, T/C: stronger effect = lower value; active = viability on the fitted dose curve at most 10% of control; inactive = the rest
How it was run: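 Viability of tumor cells grown as complex spheroids with endothelial and stromal cells, exposed to drug combinations. Top concentration at or near clinical Cmax (else 10 microM), diluted in half-log increments.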
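Also: spheroids exposed to the agents for 7 days before readout.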
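For viability, T/C in this document: percent of luminescence signal in DMSO vehicle wells taken as 100% viability.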

Cc1[nH]c2ccccc2c1CCNCc1ccc(/C=C/C(=O)NO)cc1 + Cc1[nH]c2ccc(F)cc2c1-c1nc2c3cccnc3c3ncccc3c2[nH]1
inactive: viability, T/C (second compound 0.0316 µM, first compound 0.000999 µM) 97.3% | viability, T/C (second compound 0.0316 µM, first compound 0.00316 µM) 107% | viability, T/C (second compound 0.0316 µM, first compound 0.00999 µM) 92.6% | viability, T/C (second compound 0.0316 µM, first compound 0.0316 µM) 85.9% | viability, T/C (second compound 0.0316 µM, first compound 0.0999 µM) 102% | viability, T/C (second compound 0.0316 µM, first compound 0.316 µM) 97.9% | viability, T/C (second compound 0.1 µM, first compound 0.000999 µM) 120% | viability, T/C (second compound 0.1 µM, first compound 0.00316 µM) 86.1% | viability, T/C (second compound 0.1 µM, first compound 0.00999 µM) 107% | viability, T/C (second compound 0.1 µM, first compound 0.0316 µM) 92.9% | viability, T/C (second compound 0.1 µM, first compound 0.0999 µM) 101% | viability, T/C (second compound 0.1 µM, first compound 0.316 µM) 105% | viability, T/C (second compound 0.316 µM, first compound 0.000999 µM) 115% | viability, T/C (second compound 0.316 µM, first compound 0.00316 µM) 91.1% | viability, T/C (second compound 0.316 µM, first compound 0.00999 µM) 95.6% | viability, T/C (second compound 0.316 µM, first compound 0.0316 µM) 100% | viability, T/C (second compound 0.316 µM, first compound 0.0999 µM) 91.6% | viability, T/C (second compound 0.316 µM, first compound 0.316 µM) 100% | viability, T/C (second compound 1 µM, first compound 0.000999 µM) 92.5% | viability, T/C (second compound 1 µM, first compound 0.00316 µM) 88.8% | viability, T/C (second compound 1 µM, first compound 0.00999 µM) 87.3% | viability, T/C (second compound 1 µM, first compound 0.0316 µM) 93.2% | viability, T/C (second compound 1 µM, first compound 0.0999 µM) 91.9% | viability, T/C (second compound 1 µM, first compound 0.316 µM) 91.3% | viability, T/C (second compound 3.16 µM, first compound 0.000999 µM) 84% | viability, T/C (second compound 3.16 µM, first compound 0.00316 µM) 70.6% | viability, T/C (second compound 3.16 µM, first compound 0.00999 µM) 87.9% | viability, T/C (second compound 3.16 µM, first compound 0.0316 µM) 78.5% | viability, T/C (second compound 3.16 µM, first compound 0.0999 µM) 90.2% | viability, T/C (second compound 3.16 µM, first compound 0.316 µM) 85.7% | viability, T/C (second compound 10 µM, first compound 0.000999 µM) 74% | viability, T/C (second compound 10 µM, first compound 0.00316 µM) 80.9% | viability, T/C (second compound 10 µM, first compound 0.00999 µM) 82.6% | viability, T/C (second compound 10 µM, first compound 0.0316 µM) 83.2% | viability, T/C (second compound 10 µM, first compound 0.0999 µM) 91.5% | viability, T/C (second compound 10 µM, first compound 0.316 µM) 83.3%
> 316 nM: IC50 (second compound 0.0316 µM) | IC50 (second compound 0.1 µM) | IC50 (second compound 0.316 µM) | IC50 (second compound 1 µM) | IC50 (second compound 3.16 µM) | IC50 (second compound 10 µM)
